Experimental data taken from patent US20260097037A1, “FUSED RING COMPOUND HAVING GLP-1 RECEPTOR AGONIST EFFECT” (Shionogi & Co., Ltd., priority 2022, published 2026).

Target: T1, Human GLP-1 receptor stably expressing cells (hGLP-1R/CHO-K1 cells) (Homo sapiens, UniProt P43220)
T1 construct: expressed in transfected cells
Assay: Measurement of GLP-1 receptor agonist activity (cAMP assay)
Type: cell-based
Conditions: for Emax: CHO-K1, maximum effect, cAMP with 2 nM human GLP-1 (7-36) = 100%, DMSO only = 0%, read-out: Emax; for EC50: increase in cAMP concentration in hGLP-1R/CHO-K1 cells, 37° C. 1 hour
Description: Test Example 1: Measurement of GLP-1 Receptor Agonist Activity
Human GLP-1 receptor stably expressing cells (hGLP-1R/CHO-K1 cells) are cultured in an a-MEM medium (Sigma) containing 10% FBS (Hyclone), 2% GlutaMAX (Gibco), 1% G418 (Nacalai Tesque), and 1% Penicillin-Streptomycin Mixed Solution (Sigma) at 37° C. under 5% CO2 conditions, and recovered by treating a 10 fold diluted 5.0 g/1-trypsin/5.3 mmol/1-EDTA solution (Nacalai Tesque) and cryopreserved.
A DMSO solution containing the compound of the present invention or human GLP-1 (7-36) (Phoenix Pharmaceuticals) is dispensed into a 384-well microplate (Greiner) at 62.5 nL/well, and in addition, 400 μM Forskolin (Nacalai Tesque) is dispensed therein at 7.5 nL/well. Subsequently, the frozen GLP-1 R/CHO-K1 cells are thawed in a thermostatic bath at 37° C., suspended in HBSS buffer (GIBCO) containing 0.1% BSA (Sigma), 20 mM HEPES, 0.1 mM IBMX (Sigma), and 0.2 mM RO20-1724 (Calbiochem) at 2×10^4 cells/mL, and the cell suspension is added at 6 μL/well. The solution was incubated at 37° C. for 1 hour and intracellular cAMP concentration is measured using cAMP Gs dynamic kit (Cisbio) according to the protocol attached to the product. Specifically, a cAMP-d2/Anti-cAMP-Cryptate (1/1) mixture solution is added in a total amount of 6 μL/well, and is incubated at room temperature for 1 hour, and then, time-resolved fluorescence is measured using PHERAstar (BMG Labtech).
Assuming that the cAMP concentration when human GLP-1 (7-36) is dispensed to a final concentration of 2 nM is 100% and the cAMP concentration when only DMSO is dispensed is 0%, the 50% effective concentration (EC50) and the maximum effect (Emax) of the compound of the present invention are calculated using an increase in the cAMP concentration as an index, using TIBCO Spotfire (TIBCO Software). The dilution concentration or the dilution solvent are changed as necessary.
The compounds of the present invention were tested essentially as described above.

T1 sequence (P43220 24-463): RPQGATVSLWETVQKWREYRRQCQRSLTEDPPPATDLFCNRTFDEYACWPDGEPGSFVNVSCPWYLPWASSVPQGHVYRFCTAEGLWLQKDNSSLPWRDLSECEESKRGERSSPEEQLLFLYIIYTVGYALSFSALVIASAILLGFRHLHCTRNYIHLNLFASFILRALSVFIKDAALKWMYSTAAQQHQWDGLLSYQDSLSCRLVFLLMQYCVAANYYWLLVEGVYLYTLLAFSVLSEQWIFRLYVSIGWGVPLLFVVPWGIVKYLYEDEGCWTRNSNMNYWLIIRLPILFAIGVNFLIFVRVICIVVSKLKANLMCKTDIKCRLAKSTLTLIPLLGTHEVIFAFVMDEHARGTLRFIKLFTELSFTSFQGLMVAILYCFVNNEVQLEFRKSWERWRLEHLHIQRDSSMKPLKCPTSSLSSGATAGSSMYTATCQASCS

Emax [%]	EC50 [nM]	SMILES
116	0.122	C[C@H]1c2nc(OCc3ccc(F)cc3F)c(Cl)cc2CCN1Cc1nc2c(F)cc(C(=O)O)cc2n1C[C@@H]1CCO1 [Compound I-083]
110	0.191	C[C@H]1c2nc(OCc3ccc(Cl)cn3)c(C(F)F)cc2CCN1Cc1nc2c(F)cc(C(=O)O)cc2n1C[C@@H]1CCO1 [Compound I-112]
96.3	0.174	C[C@H]1c2nc(OCc3ccc(Cl)cc3F)c(C(F)(F)F)nc2CCN1Cc1nc2ccc(C(=O)O)cc2n1C[C@@H]1CCO1 [Compound I-174]
103	0.248	C[C@H]1c2nc(OCc3ccc(F)cc3)c(Cl)cc2CCN1Cc1nc2c(F)cc(C(=O)O)cc2n1C[C@@H]1CCO1 [Compound I-087]
99.7	0.0889	C[C@H]1c2nc(NCc3c(F)cc(Cl)cc3F)c(C(F)(F)F)cc2CCN1Cc1nc2c(F)cc(C(=O)O)cc2n1C[C@@H]1CCO1 [Compound I-173]
99.3	0.215	C[C@H]1c2nc(OCc3cc(F)c(Cl)cc3F)c(C(F)F)cc2CCN1Cc1nc2ccc(C(=O)O)cc2n1C[C@@H]1CCO1 [Compound I-062]
112	0.073	C[C@H]1c2nc(OCc3ccc(Cl)cc3Cl)c(C(F)F)cc2CCN1Cc1nc2ccc(C(=O)O)c(F)c2n1C[C@@H]1CCO1 [Compound I-122]
101	0.0658	COc1cc(C(=O)O)cc2c1nc(CN1CCc3cc(Cl)c(OCc4ccc(F)cc4)nc3[C@@H]1C)n2C[C@@H]1CCO1 [Compound I-073]
96.3	1.46	Cc1cc(-c2cc(C(=O)O)cc3c2nc(CN2CCc4cc(C(F)(F)F)c(OCc5ccc(Cl)cc5F)nc4[C@@H]2C)n3C[C@@H]2CCO2)on1 [Compound I-179]
114	4.21	C[C@H]1c2cc(OCc3c(F)cc(F)cc3F)c(C(F)F)cc2CCN1Cc1nc2ccc(C(=O)O)cc2n1C[C@@H]1CCO1 [Compound I-013]
93.3	4.29	C[C@H]1c2nc(OCc3ccc(Cl)cc3F)c(C(F)(F)F)cc2CCN1Cc1nc2c(-c3cccnc3)cc(C(=O)O)cc2n1C[C@@H]1CCO1 [Compound I-190]
117	1.99	C[C@H]1c2cc(OCc3cc(F)c(Cl)cc3F)c(C(F)F)cc2CCN1Cc1nc2ccc(C(=O)O)cc2n1C[C@@H]1CCO1 [Compound I-010]
100	0.538	O=C(O)c1ccc2nc(Cc3ccc4nc(C(F)(F)F)c(OCc5ccc(Cl)cc5F)nc4c3F)n(C[C@@H]3CCO3)c2c1F [Compound I-001]
131	0.0345	C[C@H]1c2nc(OCc3ccc(Cl)cc3F)c(Cl)cc2CCN1Cc1nc2ccc(C(=O)O)c(F)c2n1C[C@@H]1CCO1 [Compound I-045]
124	0.0625	COc1cc(C(=O)O)cc2c1nc(CN1CCc3cc(C#N)c(OCc4ccc(Cl)cc4)nc3[C@@H]1C)n2C[C@@H]1CCO1 [Compound I-144]
103	0.247	C[C@H]1c2nc(SCc3ccc(Cl)cc3F)c(C(F)(F)F)cc2CCN1Cc1nc2ccc(C(=O)O)cc2n1C[C@@H]1CCO1 [Compound I-096]
98.3	0.0605	COc1cc(C(=O)O)cc2c1nc(CN1CCc3cc(Cl)c(OCc4ccc(C)cc4)nc3[C@@H]1C)n2C[C@@H]1CCO1 [Compound I-067]
113	0.307	C[C@H]1c2nc(OCc3c(F)cc(F)cc3F)c(Cl)cc2CCN1Cc1nc2ccc(C(=O)O)cc2n1C[C@@H]1CCO1 [Compound I-025]
115	0.252	C[C@H]1c2nc(OCc3ccc(Cl)cc3)c(C(F)F)cc2CCN1Cc1nc2ccc(C(=O)O)cc2n1C[C@@H]1CCO1 [Compound I-052]

Emax [%]	EC50 [nM]	SMILES
123	0.37	C[C@H]1c2nc(OCc3ccc(Cl)cc3Cl)c(Cl)cc2CCN1Cc1nc2ccc(C(=O)O)nc2n1C[C@@H]1CCO1 [Compound I-030]
131	0.0303	COc1cc(C(=O)O)cc2c1nc(CN1CCc3cc(C(F)F)c(OCc4ccc(Cl)cc4)nc3[C@@H]1C)n2C[C@@H]1CCO1 [Compound I-129]
103	0.256	C[C@H]1c2nc(NCc3ccc(Cl)cc3F)c(C(F)(F)F)cc2CCN1Cc1nc2ccc(C(=O)O)cc2n1C[C@@H]1CCO1 [Compound I-094]
112	0.0693	C[C@H]1c2nc(NCc3cc(F)c(Cl)cc3F)c(C(F)(F)F)cc2CCN1Cc1nc2c(Cl)cc(C(=O)O)cc2n1C[C@@H]1CCO1 [Compound I-176]
146	0.903	C[C@H]1c2c(cc(C(F)(F)F)c3c2O[C@@](C)(c2ccc(Cl)cc2F)O3)CCN1Cc1nc2ccc(C(=O)O)cc2n1C[C@@H]1CCO1 [Compound I-047]
141	0.108	COc1cc(C(=O)O)cc2c1nc(CN1CCc3cc(C(F)F)c(OCc4ccccc4Cl)nc3[C@@H]1C)n2C[C@@H]1CCO1 [Compound I-130]
106	0.0375	COc1cc(C(=O)O)cc2c1nc(CN1CCc3cc(Cl)c(OCc4ccc(Cl)cc4)nc3[C@@H]1C)n2C[C@@H]1CCO1 [Compound I-066]
124	0.158	Cc1ccc(COc2nc3c(cc2Cl)CCN(Cc2nc4ccc(C(=O)O)c(F)c4n2C[C@@H]2CCO2)[C@H]3C)cc1 [Compound I-035]
120	0.119	C[C@H]1c2nc(OCc3cc(F)c(Cl)cc3F)c(C#N)cc2CCN1Cc1nc2c(Cl)cc(C(=O)O)cc2n1C[C@@H]1CCO1 [Compound I-188]
109	0.0422	COc1cc(C(=O)O)cc2c1nc(CN1CCc3cc(Cl)c(OCc4ccc(F)cc4F)nc3[C@@H]1C)n2C[C@@H]1CCO1 [Compound I-069]
75.3	514	O=C(O)c1ccc2nc(C3CC34CCc3cc(C(F)(F)F)c(OCc5ccc(Cl)cc5F)cc3C4)n(C[C@@H]3CCO3)c2c1 (stereo partly shown) [Compound I-104]
117	7.33	C[C@H]1c2nc(OCc3cnn(C)n3)c(C(F)(F)F)cc2CCN1Cc1nc2ccc(C(=O)O)cc2n1C[C@@H]1CCO1 [Compound I-142]
106	2.55	C[C@H]1c2nc(OCc3ccccc3Cl)c(C(F)F)cc2CCN1Cc1nc2ccc(C(=O)O)nc2n1C[C@@H]1CCO1 [Compound I-099]
113	0.0604	C[C@H]1c2nc(OCc3cc(F)c(Cl)cc3F)c(C(F)F)cc2CCN1Cc1nc2c(F)cc(C(=O)O)cc2n1C[C@@H]1CCO1 [Compound I-114]
122	0.969	C[C@H]1c2cc(OCc3ccc(Cl)cc3Cl)c(C(F)F)cc2CCN1Cc1nc2ccc(C(=O)O)cc2n1C[C@@H]1CCO1 [Compound I-009]
110	0.0683	C[C@H]1c2nc(OCc3ccc(Cl)cc3Cl)c(C(F)F)cc2CCN1Cc1nc2c(F)cc(C(=O)O)cc2n1C[C@@H]1CCO1 [Compound I-111]
112	0.0833	C[C@H]1c2nc(OCc3cc(F)c(Cl)cc3F)c(Cl)cc2CCN1Cc1nc2ccc(C(=O)O)cc2n1C[C@@H]1CCO1 [Compound I-021]
112	0.19	C[C@H]1c2nc(NCc3ccc(Cl)cc3F)c(C(F)(F)F)cc2CCN1Cc1nc2ccc(C(=O)O)c(F)c2n1C[C@@H]1CCO1 [Compound I-153]
96	14.8	CC1c2nc(OCc3ccc(Cl)cc3F)ncc2CCN1Cc1nc2ccc(C(=O)O)cc2n1C[C@@H]1CCO1 (stereo partly shown) [Compound I-078]
